Laboratory results as given in the kinase profiling compilation of Christmann-Franck et al. (2016).

Columns and labels:
Assay in all cases: KINOMEscan competition binding
Conditions in all cases: compound 10.0 µM
[1] = test system: KIT (human), P10721 [L576P]
[2] = test system: EGFR (human), P00533 [T790M]
[3] = test system: RET (human), P07949 [V804M]
[4] = test system: EGFR (human), P00533 [T790M/L858R]
[5] = test system: EGFR (human), P00533 [747-751 del / S ins]
[6] = test system: RET (human), P07949 [M918T]
[7] = test system: ALK (human), Q9UM73 [L1196M]
[8] = test system: FLT3 (human), P36888 [R834Q]
[9] = test system: MET (human), P08581 [Y1235D]
[10] = test system: FLT3 (human), P36888 [D835H]
[11] = test system: ABL1 (human), P00519 [Y253F]
[12] = test system: EGFR (human), P00533 [752-759 del]
[13] = test system: ALK (human), Q9UM73 [C1156Y]
[14] = test system: KIT (human), P10721 [V559D/V654A]
[15] = test system: ABL1 (human), P00519 [H396P]

Chain of RET (human), P07949 [V804M] (P07949 whole entry V804M, looked up): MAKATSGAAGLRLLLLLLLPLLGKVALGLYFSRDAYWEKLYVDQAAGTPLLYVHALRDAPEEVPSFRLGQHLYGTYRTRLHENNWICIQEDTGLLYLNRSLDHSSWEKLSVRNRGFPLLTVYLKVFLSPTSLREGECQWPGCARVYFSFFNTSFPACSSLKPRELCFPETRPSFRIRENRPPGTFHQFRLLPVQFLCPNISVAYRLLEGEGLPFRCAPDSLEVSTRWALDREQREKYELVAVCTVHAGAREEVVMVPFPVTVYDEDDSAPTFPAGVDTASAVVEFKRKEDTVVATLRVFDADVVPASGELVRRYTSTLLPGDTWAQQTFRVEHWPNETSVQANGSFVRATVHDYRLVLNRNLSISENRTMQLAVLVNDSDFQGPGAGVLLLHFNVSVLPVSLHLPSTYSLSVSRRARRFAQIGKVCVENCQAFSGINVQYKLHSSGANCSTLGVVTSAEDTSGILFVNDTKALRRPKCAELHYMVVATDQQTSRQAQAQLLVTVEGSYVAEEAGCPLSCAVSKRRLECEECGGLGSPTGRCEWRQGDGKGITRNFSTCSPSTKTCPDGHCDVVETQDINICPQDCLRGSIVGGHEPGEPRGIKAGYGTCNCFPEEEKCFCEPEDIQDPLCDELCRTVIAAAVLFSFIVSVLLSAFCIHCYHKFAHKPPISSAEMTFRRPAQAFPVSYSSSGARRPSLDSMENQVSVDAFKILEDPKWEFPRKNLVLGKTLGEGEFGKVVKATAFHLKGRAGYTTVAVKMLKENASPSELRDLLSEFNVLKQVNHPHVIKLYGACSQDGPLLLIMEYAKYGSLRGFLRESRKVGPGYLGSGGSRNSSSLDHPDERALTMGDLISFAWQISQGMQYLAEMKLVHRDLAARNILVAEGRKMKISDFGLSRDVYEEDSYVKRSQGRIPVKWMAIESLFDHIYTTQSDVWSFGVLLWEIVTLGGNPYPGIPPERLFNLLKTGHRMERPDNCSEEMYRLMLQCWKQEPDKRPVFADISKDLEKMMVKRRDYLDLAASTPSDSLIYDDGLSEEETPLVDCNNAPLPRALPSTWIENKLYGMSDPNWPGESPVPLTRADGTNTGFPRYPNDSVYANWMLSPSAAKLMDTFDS
Chain of KIT (human), P10721 [L576P] (P10721 whole entry L576P, looked up): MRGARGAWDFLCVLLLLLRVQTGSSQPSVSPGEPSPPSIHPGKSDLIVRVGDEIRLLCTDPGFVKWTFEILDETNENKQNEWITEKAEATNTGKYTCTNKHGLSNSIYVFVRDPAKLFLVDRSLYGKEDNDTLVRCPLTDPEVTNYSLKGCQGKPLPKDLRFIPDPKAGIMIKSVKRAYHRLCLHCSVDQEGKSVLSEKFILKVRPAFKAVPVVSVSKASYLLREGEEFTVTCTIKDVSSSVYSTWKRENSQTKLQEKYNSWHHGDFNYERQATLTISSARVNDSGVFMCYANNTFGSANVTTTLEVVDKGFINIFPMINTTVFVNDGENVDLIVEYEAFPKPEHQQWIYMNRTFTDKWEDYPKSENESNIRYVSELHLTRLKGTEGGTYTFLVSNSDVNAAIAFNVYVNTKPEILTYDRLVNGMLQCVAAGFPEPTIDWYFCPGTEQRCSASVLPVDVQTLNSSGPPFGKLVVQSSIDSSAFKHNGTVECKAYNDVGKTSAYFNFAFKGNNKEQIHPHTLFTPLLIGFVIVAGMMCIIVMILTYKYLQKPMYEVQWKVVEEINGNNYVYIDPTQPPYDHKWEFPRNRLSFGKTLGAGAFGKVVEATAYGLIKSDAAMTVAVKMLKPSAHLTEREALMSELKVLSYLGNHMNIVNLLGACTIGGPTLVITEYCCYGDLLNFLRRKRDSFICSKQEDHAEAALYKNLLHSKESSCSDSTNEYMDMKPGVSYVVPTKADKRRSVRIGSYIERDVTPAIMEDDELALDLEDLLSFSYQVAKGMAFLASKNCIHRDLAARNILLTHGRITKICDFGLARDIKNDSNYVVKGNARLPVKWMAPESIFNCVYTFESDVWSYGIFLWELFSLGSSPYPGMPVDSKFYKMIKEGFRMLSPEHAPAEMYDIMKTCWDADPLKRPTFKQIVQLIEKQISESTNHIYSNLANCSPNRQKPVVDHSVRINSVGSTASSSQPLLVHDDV
Chain of KIT (human), P10721 [V559D/V654A] (P10721 whole entry V559D/V654A, looked up): as the sequence (P10721 whole entry L576P, looked up) above, with V559D, P576L, V654A counted along it
Chain of RET (human), P07949 [M918T] (P07949 whole entry M918T, looked up): as the sequence (P07949 whole entry V804M, looked up) above, with M804V, M918T counted along it
Chain of ALK (human), Q9UM73 [L1196M] (Q9UM73 whole entry L1196M, looked up): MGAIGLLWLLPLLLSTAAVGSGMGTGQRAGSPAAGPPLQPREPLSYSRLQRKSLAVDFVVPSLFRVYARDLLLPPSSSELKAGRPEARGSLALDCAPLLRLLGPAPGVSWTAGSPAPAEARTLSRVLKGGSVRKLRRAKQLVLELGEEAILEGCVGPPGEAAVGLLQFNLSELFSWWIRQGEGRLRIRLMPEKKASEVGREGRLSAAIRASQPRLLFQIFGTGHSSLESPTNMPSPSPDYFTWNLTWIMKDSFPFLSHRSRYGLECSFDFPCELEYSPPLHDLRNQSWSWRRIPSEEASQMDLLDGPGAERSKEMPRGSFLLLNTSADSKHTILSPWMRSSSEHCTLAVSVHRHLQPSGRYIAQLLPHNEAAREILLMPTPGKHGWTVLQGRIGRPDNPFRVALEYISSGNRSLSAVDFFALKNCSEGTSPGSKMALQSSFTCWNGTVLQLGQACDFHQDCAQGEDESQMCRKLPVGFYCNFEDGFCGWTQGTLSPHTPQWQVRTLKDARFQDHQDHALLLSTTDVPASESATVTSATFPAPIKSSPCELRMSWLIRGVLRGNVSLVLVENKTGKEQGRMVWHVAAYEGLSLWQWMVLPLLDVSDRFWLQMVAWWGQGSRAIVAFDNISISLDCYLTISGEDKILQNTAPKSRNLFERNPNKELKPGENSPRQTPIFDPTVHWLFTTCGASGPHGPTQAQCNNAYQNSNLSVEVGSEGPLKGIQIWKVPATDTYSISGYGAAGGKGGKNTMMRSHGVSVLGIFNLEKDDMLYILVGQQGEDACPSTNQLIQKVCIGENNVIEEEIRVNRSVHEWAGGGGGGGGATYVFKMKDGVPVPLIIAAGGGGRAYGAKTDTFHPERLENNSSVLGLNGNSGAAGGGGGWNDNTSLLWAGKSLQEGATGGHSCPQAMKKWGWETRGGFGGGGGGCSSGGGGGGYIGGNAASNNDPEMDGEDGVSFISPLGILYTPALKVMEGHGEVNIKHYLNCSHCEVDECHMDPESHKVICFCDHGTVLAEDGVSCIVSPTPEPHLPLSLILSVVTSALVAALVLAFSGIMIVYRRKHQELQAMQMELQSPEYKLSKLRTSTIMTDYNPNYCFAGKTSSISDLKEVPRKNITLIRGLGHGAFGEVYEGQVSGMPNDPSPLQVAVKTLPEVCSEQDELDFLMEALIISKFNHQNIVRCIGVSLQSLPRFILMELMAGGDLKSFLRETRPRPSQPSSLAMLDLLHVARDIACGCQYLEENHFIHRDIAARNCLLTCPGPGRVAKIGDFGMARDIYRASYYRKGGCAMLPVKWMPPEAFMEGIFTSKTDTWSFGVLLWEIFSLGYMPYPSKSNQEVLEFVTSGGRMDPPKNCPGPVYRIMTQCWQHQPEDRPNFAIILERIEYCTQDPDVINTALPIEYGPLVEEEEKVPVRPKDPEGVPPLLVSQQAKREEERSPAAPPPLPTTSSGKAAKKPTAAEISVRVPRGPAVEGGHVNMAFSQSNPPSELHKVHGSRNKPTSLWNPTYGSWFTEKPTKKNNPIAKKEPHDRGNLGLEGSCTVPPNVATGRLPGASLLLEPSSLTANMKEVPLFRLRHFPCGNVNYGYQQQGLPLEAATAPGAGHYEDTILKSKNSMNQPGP
Chain of ALK (human), Q9UM73 [C1156Y] (Q9UM73 whole entry C1156Y, looked up): as the sequence (Q9UM73 whole entry L1196M, looked up) above, with C1156Y, M1196L counted along it

Row | SMILES | kinase still bound, per cent of control [1] [%] | kinase still bound, per cent of control [2] [%] | kinase still bound, per cent of control [3] [%] | kinase still bound, per cent of control [4] [%] | kinase still bound, per cent of control [5] [%] | kinase still bound, per cent of control [6] [%] | kinase still bound, per cent of control [7] [%] | kinase still bound, per cent of control [8] [%] | kinase still bound, per cent of control [9] [%] | kinase still bound, per cent of control [10] [%] | kinase still bound, per cent of control [11] [%] | kinase still bound, per cent of control [12] [%] | kinase still bound, per cent of control [13] [%] | kinase still bound, per cent of control [14] [%] | kinase still bound, per cent of control [15] [%]
1 | COc1cc2ncnc(Nc3cccc(Cl)c3)c2cc1OC | 56 | 1.3 | 94 | 22 | 3.2 | 3.4 | 63 | 58 | 100 | 15 | 2.3 | 2.5 | 31 | 82 | 
2 | Cc1cn(-c2cc(C(=O)Nc3ccc(C)c(NC(=O)c4ccno4)c3)cc(C(F)(F)F)c2)cn1 | 0 |  | 100 | 100 | 100 | 100 |  |  | 100 | 100 | 7.4 | 100 |  | 5.4 | 16
3 | COc1cc(C(=O)NC2CCN(C)CC2)ccc1Nc1ncc2c(n1)N(C1CCCC1)CCC(=O)N2C(C)C | 100 |  | 100 | 100 | 100 | 0 |  |  | 100 | 100 | 100 | 100 |  | 100 | 100
4 | CCC(=O)N1CCN(c2ccc(-n3c(=O)ccc4cnc5ccc(-c6cnc7ccccc7c6)cc5c43)cc2C(F)(F)F)CC1 | 48 | 100 | 69 | 100 | 80 | 51 |  |  | 100 | 18 |  | 84 |  |  | 68
5 | O=c1[nH]c2ccccc2n1C1CCN(Cc2ccc(-c3nc4cc5[nH]cnc5cc4nc3-c3ccccc3)cc2)CC1 | 87 | 67 | 91 | 100 | 92 | 79 | 64 | 100 | 68 | 74 | 72 | 58 | 55 | 92 | 
6 | CCOc1cc(N2CCC(O)CC2)ccc1Nc1ncc2c(n1)N(C)c1ccccc1C(=O)N2C | 100 |  | 100 | 100 | 100 | 100 |  |  | 100 | 100 | 100 | 100 |  | 100 | 100
